According to patent publication US12637428B2, “Isoquinoline derivatives as SIK2 inhibitors” (Cancer Research Technology Limited, priority 2019, dated 2026):

Legend:
Format in all cases: biochemical
[1] = target: T1, SIK2 (Homo sapiens, UniProt Q9H0K1); assay: SIK2 kinase assay, IMAP fluorescence polarization; details: 50 or 100 μM ATP, average
T1 construct: purchased Life Technologies
Summary of the method: (§1)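 Phosphorylation of 100 nM FAM-peptide by 0.6-13 nM kinase (50 or 100 μM ATP, pH 7.2 Tris/MgCl2 buffer, 60 min, RT) was quantified by IMAP fluorescence polarization. Stop reagent: 0.25% IMAP binding reagent, buffer A:B 85:15, except 30:70 for Src.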

[2] = target: T2, SIK1 (Homo sapiens, UniProt P57059); assay: SIK1 kinase assay, IMAP fluorescence polarization; details: 50 or 100 μM ATP, average
T2 construct: purchased Life Technologies
Summary of the method: as §1

[3] = target: T3, SIK3 (Homo sapiens, UniProt Q9Y2K2); assay: SIK3 kinase assay, IMAP fluorescence polarization; details: 50 or 100 μM ATP, average
T3 construct: purchased Life Technologies
Summary of the method: as §1

[4] = target: T4, Abl (Homo sapiens, UniProt P00519); assay: Abl kinase assay, IMAP fluorescence polarization; details: 50 or 100 μM ATP, average
T4 construct: purchased Life Technologies
Summary of the method: as §1

[5] = target: T5, EPHA2 (Homo sapiens, UniProt P29317); assay: EPHA2 kinase assay, IMAP fluorescence polarization; details: 50 or 100 μM ATP, Tris pH 8.5, average
T5 construct: purchased Life Technologies

[6] = target: T6, Src (Homo sapiens, UniProt P12931); assay: Src kinase assay, IMAP fluorescence polarization; details: 50 or 100 μM ATP, average
T6 construct: purchased Life Technologies
Summary of the method: as §1

T5 sequence (P29317 24-976): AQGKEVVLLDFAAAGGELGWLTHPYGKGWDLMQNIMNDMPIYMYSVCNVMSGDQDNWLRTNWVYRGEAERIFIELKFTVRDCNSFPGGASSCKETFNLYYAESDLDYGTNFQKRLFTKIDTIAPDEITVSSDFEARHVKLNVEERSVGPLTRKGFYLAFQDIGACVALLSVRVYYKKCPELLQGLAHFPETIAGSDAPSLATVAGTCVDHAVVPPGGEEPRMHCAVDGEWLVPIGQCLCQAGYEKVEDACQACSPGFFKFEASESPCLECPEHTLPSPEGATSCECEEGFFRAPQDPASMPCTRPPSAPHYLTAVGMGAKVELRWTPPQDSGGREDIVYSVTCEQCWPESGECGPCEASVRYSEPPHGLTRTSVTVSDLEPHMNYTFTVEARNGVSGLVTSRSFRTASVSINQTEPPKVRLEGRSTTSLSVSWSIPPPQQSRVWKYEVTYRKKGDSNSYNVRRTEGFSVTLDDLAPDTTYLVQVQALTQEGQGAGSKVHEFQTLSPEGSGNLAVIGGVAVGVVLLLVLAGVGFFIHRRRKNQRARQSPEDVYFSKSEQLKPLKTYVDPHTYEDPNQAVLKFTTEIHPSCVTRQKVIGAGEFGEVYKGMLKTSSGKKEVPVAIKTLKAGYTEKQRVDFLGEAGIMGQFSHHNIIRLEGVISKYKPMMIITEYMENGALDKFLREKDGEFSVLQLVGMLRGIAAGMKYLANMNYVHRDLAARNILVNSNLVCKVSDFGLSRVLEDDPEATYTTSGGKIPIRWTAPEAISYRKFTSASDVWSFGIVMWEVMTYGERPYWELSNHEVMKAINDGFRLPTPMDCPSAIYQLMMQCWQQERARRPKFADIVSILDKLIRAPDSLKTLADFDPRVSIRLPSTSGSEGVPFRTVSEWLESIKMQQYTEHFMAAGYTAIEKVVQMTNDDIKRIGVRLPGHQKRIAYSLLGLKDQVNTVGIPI
T2 sequence (P57059 whole entry): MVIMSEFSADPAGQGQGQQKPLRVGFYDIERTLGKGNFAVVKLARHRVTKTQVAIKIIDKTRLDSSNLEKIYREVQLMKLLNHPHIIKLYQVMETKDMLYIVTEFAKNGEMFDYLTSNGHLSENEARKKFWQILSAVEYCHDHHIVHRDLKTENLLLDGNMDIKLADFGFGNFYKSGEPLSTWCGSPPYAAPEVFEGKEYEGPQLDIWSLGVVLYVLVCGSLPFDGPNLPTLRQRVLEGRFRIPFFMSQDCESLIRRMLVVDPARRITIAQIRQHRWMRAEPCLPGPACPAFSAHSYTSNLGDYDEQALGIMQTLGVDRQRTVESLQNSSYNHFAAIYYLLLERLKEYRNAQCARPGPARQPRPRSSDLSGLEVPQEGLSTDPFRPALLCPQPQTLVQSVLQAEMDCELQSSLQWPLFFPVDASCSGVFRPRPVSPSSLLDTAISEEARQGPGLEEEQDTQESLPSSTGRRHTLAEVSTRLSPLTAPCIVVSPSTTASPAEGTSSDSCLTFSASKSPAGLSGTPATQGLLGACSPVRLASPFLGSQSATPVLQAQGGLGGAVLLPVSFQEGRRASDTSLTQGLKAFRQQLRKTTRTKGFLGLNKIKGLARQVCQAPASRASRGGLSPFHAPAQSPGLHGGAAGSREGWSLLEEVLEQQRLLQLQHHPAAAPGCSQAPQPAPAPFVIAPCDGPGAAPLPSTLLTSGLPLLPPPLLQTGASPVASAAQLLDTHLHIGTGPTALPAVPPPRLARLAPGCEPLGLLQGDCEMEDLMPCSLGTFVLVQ
T3 sequence (Q9Y2K2 whole entry): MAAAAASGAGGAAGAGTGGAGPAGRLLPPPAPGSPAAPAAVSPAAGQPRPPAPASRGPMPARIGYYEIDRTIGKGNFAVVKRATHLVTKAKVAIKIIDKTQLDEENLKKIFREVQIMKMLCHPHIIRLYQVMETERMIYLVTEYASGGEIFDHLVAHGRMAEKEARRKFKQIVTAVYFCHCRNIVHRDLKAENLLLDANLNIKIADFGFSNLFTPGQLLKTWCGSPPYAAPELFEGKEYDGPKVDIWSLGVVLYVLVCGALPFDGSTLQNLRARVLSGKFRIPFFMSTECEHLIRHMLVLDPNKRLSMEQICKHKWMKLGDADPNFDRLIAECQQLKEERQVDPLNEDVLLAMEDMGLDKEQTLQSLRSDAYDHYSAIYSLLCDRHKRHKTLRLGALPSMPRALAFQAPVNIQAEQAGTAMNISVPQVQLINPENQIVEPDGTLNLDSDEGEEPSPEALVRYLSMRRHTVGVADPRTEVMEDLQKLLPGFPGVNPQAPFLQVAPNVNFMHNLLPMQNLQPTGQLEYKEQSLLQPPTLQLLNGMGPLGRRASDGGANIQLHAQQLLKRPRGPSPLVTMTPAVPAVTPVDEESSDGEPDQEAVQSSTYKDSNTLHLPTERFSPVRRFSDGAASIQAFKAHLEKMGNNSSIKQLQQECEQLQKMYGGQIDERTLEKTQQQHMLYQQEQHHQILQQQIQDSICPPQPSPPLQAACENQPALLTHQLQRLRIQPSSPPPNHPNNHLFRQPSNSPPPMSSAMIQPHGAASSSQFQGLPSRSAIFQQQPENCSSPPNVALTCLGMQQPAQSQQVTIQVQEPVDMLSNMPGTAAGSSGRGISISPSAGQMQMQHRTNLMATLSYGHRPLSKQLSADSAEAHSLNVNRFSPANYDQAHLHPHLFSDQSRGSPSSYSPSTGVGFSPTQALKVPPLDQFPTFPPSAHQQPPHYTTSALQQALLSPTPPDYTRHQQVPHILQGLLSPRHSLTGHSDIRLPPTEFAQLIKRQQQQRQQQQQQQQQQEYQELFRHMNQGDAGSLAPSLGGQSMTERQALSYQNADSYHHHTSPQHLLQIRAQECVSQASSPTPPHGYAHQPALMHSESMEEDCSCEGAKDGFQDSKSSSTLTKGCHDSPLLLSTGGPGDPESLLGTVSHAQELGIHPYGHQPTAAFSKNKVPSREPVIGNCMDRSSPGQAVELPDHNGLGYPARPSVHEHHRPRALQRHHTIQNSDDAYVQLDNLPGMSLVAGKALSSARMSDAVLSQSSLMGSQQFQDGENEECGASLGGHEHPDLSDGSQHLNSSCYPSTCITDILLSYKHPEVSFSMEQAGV
T1 sequence (Q9H0K1 whole entry): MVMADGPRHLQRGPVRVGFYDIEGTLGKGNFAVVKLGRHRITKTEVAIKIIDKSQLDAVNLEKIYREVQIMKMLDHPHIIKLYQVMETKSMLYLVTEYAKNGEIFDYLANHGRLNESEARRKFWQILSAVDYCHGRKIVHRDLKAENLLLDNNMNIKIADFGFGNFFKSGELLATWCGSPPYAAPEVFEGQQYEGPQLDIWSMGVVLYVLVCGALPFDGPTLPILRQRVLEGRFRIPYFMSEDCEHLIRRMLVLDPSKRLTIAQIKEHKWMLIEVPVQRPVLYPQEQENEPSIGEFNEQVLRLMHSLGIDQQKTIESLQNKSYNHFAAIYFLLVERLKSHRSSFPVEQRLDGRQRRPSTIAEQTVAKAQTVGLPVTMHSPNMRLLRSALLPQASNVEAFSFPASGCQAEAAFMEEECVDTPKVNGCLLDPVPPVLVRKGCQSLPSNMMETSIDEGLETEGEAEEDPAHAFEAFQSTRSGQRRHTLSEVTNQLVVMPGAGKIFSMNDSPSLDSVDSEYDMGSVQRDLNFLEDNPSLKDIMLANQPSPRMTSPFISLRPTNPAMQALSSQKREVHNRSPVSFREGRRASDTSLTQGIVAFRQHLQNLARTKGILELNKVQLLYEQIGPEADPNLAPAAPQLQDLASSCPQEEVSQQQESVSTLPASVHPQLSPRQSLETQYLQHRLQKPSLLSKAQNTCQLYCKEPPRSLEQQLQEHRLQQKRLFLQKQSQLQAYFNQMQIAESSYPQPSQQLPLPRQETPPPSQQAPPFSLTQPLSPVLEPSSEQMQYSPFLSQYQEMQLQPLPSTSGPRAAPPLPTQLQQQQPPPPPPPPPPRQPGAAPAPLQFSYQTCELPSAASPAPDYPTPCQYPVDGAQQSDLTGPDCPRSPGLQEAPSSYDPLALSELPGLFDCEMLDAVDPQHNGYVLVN
T4 sequence (P00519 whole entry): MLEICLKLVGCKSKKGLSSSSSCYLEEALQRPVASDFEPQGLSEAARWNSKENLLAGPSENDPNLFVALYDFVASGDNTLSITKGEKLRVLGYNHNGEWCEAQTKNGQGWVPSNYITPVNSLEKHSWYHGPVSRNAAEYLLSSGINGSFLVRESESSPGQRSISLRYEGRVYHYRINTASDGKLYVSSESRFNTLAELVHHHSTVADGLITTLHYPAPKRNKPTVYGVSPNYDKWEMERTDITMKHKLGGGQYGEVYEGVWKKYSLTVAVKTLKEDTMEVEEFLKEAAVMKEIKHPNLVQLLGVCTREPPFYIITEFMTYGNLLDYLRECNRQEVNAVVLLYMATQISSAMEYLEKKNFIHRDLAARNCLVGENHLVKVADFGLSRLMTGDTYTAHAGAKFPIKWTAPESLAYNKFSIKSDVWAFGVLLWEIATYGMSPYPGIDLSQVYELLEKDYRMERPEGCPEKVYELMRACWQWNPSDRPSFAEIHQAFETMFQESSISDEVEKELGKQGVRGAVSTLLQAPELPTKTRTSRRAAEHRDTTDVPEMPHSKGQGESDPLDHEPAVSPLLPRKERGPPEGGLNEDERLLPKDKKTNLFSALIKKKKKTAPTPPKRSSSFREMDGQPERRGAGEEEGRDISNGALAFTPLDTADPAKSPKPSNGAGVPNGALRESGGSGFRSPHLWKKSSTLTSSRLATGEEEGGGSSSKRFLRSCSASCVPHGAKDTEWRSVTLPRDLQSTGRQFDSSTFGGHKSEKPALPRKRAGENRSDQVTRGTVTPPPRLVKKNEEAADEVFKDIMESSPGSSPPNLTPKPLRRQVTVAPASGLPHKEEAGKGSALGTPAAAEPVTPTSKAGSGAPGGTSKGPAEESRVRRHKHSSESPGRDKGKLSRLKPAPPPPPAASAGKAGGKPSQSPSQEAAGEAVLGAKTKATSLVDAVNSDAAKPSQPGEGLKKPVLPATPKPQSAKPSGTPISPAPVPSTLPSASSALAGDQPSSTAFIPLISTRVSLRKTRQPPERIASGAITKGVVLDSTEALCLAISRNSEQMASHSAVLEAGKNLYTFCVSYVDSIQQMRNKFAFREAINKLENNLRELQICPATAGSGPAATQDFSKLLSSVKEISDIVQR

| SMILES | Ki [1] | Ki [2] | Ki [3] | Ki [4] | Ki [5] | Ki [6] |
| --- | --- | --- | --- | --- | --- | --- |
| Cc1cccc(F)c1-c1cc(NC[C@@H]2CCN(C)C2)c2cc(N)ncc2c1 [Example 74, 7-(2-fluoro-6-methyl-phenyl)-N5-[[(3S)-1-methylpyrrolidin-3-yl]methyl]isoquinoline-3,5-diamine] | 0.101 nM | 0.461 nM | 0.765 nM | 0.505 nM | 66.1 nM | > 1000 nM |
| Cc1cccc(F)c1-c1cc(NC[C@H]2CCN(C)C2)c2cc(N)ncc2c1 [Example 75, 7-(2-fluoro-6-methyl-phenyl)-N5-[[(3R)-1-methylpyrrolidin-3-yl]methyl] isoquinoline-3,5-diamine] | 0.19 nM | 0.618 nM | 2 nM | 10.3 nM | 120 nM | 45.2 nM |
| Cc1cccc(F)c1-c1cc(NC[C@@H]2CCCN(C)C2)c2cc(N)ncc2c1 [Example 76, 7-(2-fluoro-6-methyl-phenyl)-N5-[[(3S)-1-methyl-3-piperidyl]methyl]isoq uinoline-3,5-diamine] | 0.188 nM | 0.516 nM | 1.64 nM | 2 nM | 16.6 nM | 12.7 nM |
| Cc1cccc(F)c1-c1cc(NC[C@H]2CCCN(C)C2)c2cc(N)ncc2c1 [Example 77, 7-(2-fluoro-6-methyl-phenyl)-N5-[[(3R)-1-methyl-3-piperidyl]methyl] isoquinoline-3,5-diamine] | 0.302 nM | 1.13 nM | 3.74 nM | 26.5 nM | 80.1 nM | 197 nM |
| Cc1cccc(F)c1-c1cc(NC[C@@H]2CCCCN2C)c2cc(N)ncc2c1 [Example 78, 7-(2-fluoro-6-methyl-phenyl)-N5-[[(2S)-1-methyl-2-piperidyl]methyl]isoq uinoline-3,5-diamine] | 0.0935 nM | 0.433 nM | 1.6 nM | 6.85 nM | 119 nM | 43.3 nM |
| Cc1cccc(F)c1-c1cc(N2CC(N(C)C)C2)c2cc(N)ncc2c1 [Example 79, 5-[3-(dimethylamino)azetidin-1-yl]-7-(2-fluoro-6-methyl-phenyl)isoquinolin-3-amine] | 0.101 nM | 0.747 nM | 2.24 nM | 12.7 nM | 84.1 nM | 106 nM |
| Cc1cccc(F)c1-c1cc(N[C@@H]2CCCCN(C)C2)c2cc(N)ncc2c1 [Example 80, 7-(2-fluoro-6-methyl-phenyl)-N5-[(3R)-1-methylazepan-3-yl]isoquinoline-3,5-diamine] | 0.448 nM | 0.905 nM | 4.9 nM | 15.2 nM | > 1000 nM | 48.6 nM |
| Cc1cccc(F)c1-c1cc(N2CCC[C@H](N(C)C)C2)c2cc(N)ncc2c1 [Example 82, 5-[(3S)-3-(dimethylamino)-1-piperidyl]-7-(2-fluoro-6-methyl-phenyl)isoquinolin-3-amine] | 0.269 nM | 1.25 nM | 10.3 nM | 10.4 nM | > 1000 nM | 93.9 nM |
| CNc1cc2c(N3CCC[C@H](N(C)C)C3)cc(-c3c(C)cccc3F)cc2cn1 [Example 83, 5-[(3S)-3-(dimethylamino)-1-piperidyl]-7-(2-fluoro-6-methyl-phenyl)-N-methyl-isoquinolin-3-amine] | 0.316 nM | 0.55 nM | 7.35 nM | 9.38 nM | > 1000 nM | 97.8 nM |
| Cc1cccc(F)c1-c1cc(N2CCC[C@@H](N(C)C)C2)c2cc(N)ncc2c1 [Example 84, 5-[(3R)-3-(dimethylamino)-1-piperidyl]-7-(2-fluoro-6-methyl-phenyl)isoquinolin-3-amine] | 0.0819 nM | 0.409 nM | 2.23 nM | 49.4 nM | > 1000 nM | 274 nM |
| Cc1cccc(F)c1-c1cc(N[C@@H]2CCCN(C)C2)c2cc(N)ncc2c1 [Example 85, 7-(2-fluoro-6-methyl-phenyl)-N5-[(3R)-1-methyl-3-piperidyl]isoquinoline-3,5-diamine] | 0.0911 nM | 0.611 nM | 1.62 nM | 7.38 nM | 258 nM | 40.2 nM |
| Cc1cccc(F)c1-c1cc(N[C@H]2CCCN(C)C2)c2cc(N)ncc2c1 [Example 86, 7-(2-fluoro-6-methyl-phenyl)-N5-[(3S)-1-methyl-3-piperidyl] isoquinoline-3,5-diamine] | 0.0838 nM | 0.656 nM | 1.98 nM | 6.72 nM | 22.3 nM | 34.3 nM |
| Cc1cccc(F)c1-c1ccc2c(C(=O)NC3CN(C)C3)c(N)ncc2c1 [Example 89, 3-Amino-7-(2-fluoro-6-methyl-phenyl)-N-(1-methylazetidin-3-yl)isoquinoline-4-carboxamide] | 5.31 nM | 53.2 nM | 130 nM | 83.7 nM | 1850 nM | 1040 nM |
| Cc1cccc(F)c1-c1cc(C(=O)NC2CCN(C)C2)c2cc(N)ncc2c1 (stereo not drawn) [Example 99, 3-Amino-7-(2-fluoro-6-methyl-phenyl)-N-(1-methylpyrrolidin-3-yl)isoquinoline-5-carboxamide] | 2.91 nM | 5.62 nM | 38.8 nM | 3.04 nM | 29.2 nM | 32.9 nM |
| Cc1cccc(F)c1-c1cc(C(=O)NC2CN(C)C2)c2cc(N)ncc2c1 [Example 100, 3-amino-7-(2-fluoro-6-methyl-phenyl)-N-(1-methylazetidin-3-yl)isoquinoline-5-carboxamide] | 4.41 nM | 11.8 nM | 61.4 nM | 3.65 nM | 131 nM | 41.4 nM |
| Cc1cccc(F)c1-c1cc(OC2CCN(C)CC2)c2cc(N)ncc2c1 [Example 101, 7-(2-Fluoro-6-methyl-phenyl)-5-[(1-methyl-4-piperidyl)oxy]isoquinolin-3-amine] | 0.0539 nM | 0.66 nM | 0.915 nM | 59.1 nM | > 100 nM | 134 nM |
| Cc1cccc(F)c1-c1cc(OC2CN(C)C2)c2cc(N)ncc2c1 [Example 102, 7-(2-fluoro-6-methyl-phenyl)-5-(1-methylazetidin-3-yl)oxy-isoquinolin-3-amine] | 0.219 nM | 1.46 nM | 5.27 nM | 24.6 nM | > 1000 nM | 274 nM |
| Cc1cccc(F)c1-c1cc(NC2CCN(C)CC2)c2ccncc2c1 [Example 103, 7-(2-Fluoro-6-methyl-phenyl)-N-(1-methyl-4-piperidyl)isoquinolin-5-amine] | 0.296 nM | 2.21 nM | 5.01 nM | 97.2 nM | 189 nM | 143 nM |

Further lines, results first:

| Ki [1] | Ki [2] | Ki [3] | Ki [4] | Ki [5] | Ki [6] | SMILES |
| --- | --- | --- | --- | --- | --- | --- |
| 4.37 nM | 43.4 nM | 176 nM | 45.4 nM | > 1000 nM | > 1000 nM | Cc1cccc(F)c1-c1cc(N2CCC(O)CC2)c2cc(N)ncc2c1 [Example 104, 1-[3-Amino-7-(2-fluoro-6-methyl-phenyl)-5-isoquinolyl]piperidin-4-ol] |
| 19.5 nM | 123 nM | 553 nM | 28.8 nM | > 10000 nM | > 10000 nM | Cc1cccc(F)c1-c1cc(N2CC[C@@H](O)C2)c2cc(N)ncc2c1 [Example 106, (3R)-1-[3-amino-7-(2-fluoro-6-methyl-phenyl)-5-isoquinolyl]pyrrolidin-3-ol] |
| 4.46 nM | 24.6 nM | 201 nM | 56.4 nM | > 1000 nM | 617 nM | Cc1cccc(F)c1-c1cc(N2CCC[C@H](O)C2)c2cc(N)ncc2c1 [Example 107, (3S)-1-[3-amino-7-(2-fluoro-6-methyl-phenyl)-5-isoquinolyl]piperidin-3-ol] |
| 2.39 nM | 29.7 nM | 130 nM | 101 nM | 2290 nM | 1880 nM | Cc1cccc(F)c1-c1cc(N2CCC[C@@H](O)C2)c2cc(N)ncc2c1 [Example 108, (3R)-1-[3-amino-7-(2-fluoro-6-methyl-phenyl)-5-isoquinolyl]piperidin-3-ol] |
| 1.6 nM | 3.76 nM | 14.9 nM | 74.8 nM | > 1000 nM | 3330 nM | Cc1cccc(F)c1-c1cc(N[C@H]2CC[C@H](O)CC2)c2cc(N)ncc2c1 [Example 109, 4-[[3-amino-7-(2-fluoro-6-methyl-phenyl)-5-isoquinolyl]amino]cyclo hexanol] |
| 6.97 nM | 55.5 nM | 78.1 nM | 56 nM | > 1000 nM | > 10000 nM | Cc1cccc(F)c1-c1cc(NC2CCOCC2)c2cc(N)ncc2c1 [Example 110, 7-(2-Fluoro-6-methyl-phenyl)-N5-tetrahydropyran-4-yl-isoquinoline-3,5-diamine] |
| 14.7 nM | 91.6 nM | 431 nM | 124 nM | > 10000 nM | > 10000 nM | CC(=O)N[C@H]1CCN(c2cc(-c3c(C)cccc3F)cc3cnc(N)cc23)C1 [Example 112, N-[(3S)-1-[3-Amino-7-(2-fluoro-6-methyl-phenyl)-5-isoquinolyl]pyrrolidin-3-yl]acetamide] |
| 9.81 nM | 74.9 nM | 234 nM | 88.9 nM | > 10000 nM | 1080 nM | CC(=O)N[C@@H]1CCN(c2cc(-c3c(C)cccc3F)cc3cnc(N)cc23)C1 [Example 113, N-[(3R)-1-[3-amino-7-(2-fluoro-6-methyl-phenyl)-5-isoquinolyl]pyrrolidin-3-yl]acetamide] |
